Experimental findings from publication PMC8188423, “Investigating the phosphinic acid tripeptide mimetic DG013A as a tool compound inhibitor of the M1-aminopeptidase ERAP1” (Bioorganic & Medicinal Chemistry Letters, 2021) are described below.

pIC50: −log10 of the molar value. Read-outs that look alike come from different tables or passages of the source.

Series [1] can be described thus: Caco-2 permeability assay. In kind it is in vitro ADME, human. Particulars: human; for recovery at 2 h, 10 μM: Caco-2, pH 7.4, SI table; for Papp B→A at 2 h, 10 μM / Papp A→B at 2 h, 10 μM: Caco-2, pH 7.4; for Papp B→A at 2 h, 10 μM: SI table; for Papp A→B at 2 h, 10 μM: apical to basolateral, limit of quantification 1.0 x 10^−6 cm/s, read-out: CACO2 Papp A:B. Here is the method:
(§1) Whether the inhibition of ERAP1 by 1 would translate to in-cell activity would depend on its permeability, as well as its affinity.
(§2) Papp (apparent permeability) was determined in the Caco-2 human colon carcinoma cell line (ATCC). Cells were maintained (DMEM with 10% fetal bovine serum, penicillin, and streptomycin) in a humidified atmosphere with 5% CO2/95% air for 10 days. Cells were plated out onto a cell culture assembly plate (Millipore, UK), and monolayer confluency was checked using a TEER electrode prior to the assay. Media was washed off and replaced in the appropriate apical and basal wells with HBSS buffer (pH 7.4) containing compound (10 μM, 1% DMSO). The Caco-2 plate was incubated for 2 h at 37 °C, and Lucifer Yellow was used to confirm membrane integrity after the assay. Samples from the apical and basolateral chambers were analyzed using a Waters TQ-S LC-MS/MS system.
(In general: Passage across Caco-2 layers is used to estimate intestinal permeability.)

Series [2] deals with Caco-2 human colon carcinoma cell line. The series can be described thus: Caco-2 permeability assay. Particulars: SI table, remark in Recovery A:B cell. It counts as in vitro ADME. On the procedure:
as §1, §2

In another series the target is human ERAP2 (Homo sapiens, UniProt Q6P179). The series can be described thus: ERAP2 R-AMC aminopeptidase assay. Particulars: ERAP2 10 nM, R-AMC 10 µM, pH8.0, 30 min.
human ERAP2, sequence (Q6P179 whole entry): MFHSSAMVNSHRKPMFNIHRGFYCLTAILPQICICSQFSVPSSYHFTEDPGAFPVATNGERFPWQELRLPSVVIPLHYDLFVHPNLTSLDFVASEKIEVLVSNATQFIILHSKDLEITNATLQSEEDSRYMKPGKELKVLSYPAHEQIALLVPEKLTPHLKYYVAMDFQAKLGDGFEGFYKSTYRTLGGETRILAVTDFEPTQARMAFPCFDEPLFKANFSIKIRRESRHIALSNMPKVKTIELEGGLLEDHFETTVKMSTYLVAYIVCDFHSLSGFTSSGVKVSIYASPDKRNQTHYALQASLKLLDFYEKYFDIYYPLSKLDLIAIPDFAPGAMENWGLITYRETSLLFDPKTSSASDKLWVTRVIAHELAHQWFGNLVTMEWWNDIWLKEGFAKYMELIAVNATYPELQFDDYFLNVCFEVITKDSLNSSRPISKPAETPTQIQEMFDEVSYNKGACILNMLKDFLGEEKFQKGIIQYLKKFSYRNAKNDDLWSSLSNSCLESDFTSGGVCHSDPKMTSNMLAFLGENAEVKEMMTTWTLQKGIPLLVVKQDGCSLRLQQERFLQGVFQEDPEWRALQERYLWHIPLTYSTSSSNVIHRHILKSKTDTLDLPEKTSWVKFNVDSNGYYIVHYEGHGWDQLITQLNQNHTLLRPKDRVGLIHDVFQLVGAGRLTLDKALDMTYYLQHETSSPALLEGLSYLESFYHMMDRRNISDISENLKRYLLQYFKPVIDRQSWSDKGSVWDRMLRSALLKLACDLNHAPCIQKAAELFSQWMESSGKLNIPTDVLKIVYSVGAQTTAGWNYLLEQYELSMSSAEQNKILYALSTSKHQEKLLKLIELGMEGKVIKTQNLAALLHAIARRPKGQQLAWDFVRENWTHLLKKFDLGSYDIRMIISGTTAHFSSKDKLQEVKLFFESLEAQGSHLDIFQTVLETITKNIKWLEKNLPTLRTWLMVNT

From the text for human ERAP2: Conditions were selected whereby substrate concentrations were at or below Km, so that IC50 values could be compared between proteins for competitive ligands.
Briefly, the assay consists in measuring the fluorescence of 7-amido-4-methylcoumarin (AMC) released by the enzymatic hydrolysis of one of the short peptide substrates: Leucine-AMC (Sigma, catalogue # L2145) by the ERAP1 enzyme, Arginine-AMC (Sigma, catalogue # A2027) by the ERAP2 enzyme or Alanine-AMC (Sigma, catalogue #A4302) by the APN (ANPEP/CD13) enzyme. […] After 30 minutes of reaction at room temperature, the fluorescence was red on a Pherastar FSX (BMG LabTech) or an Envision (Perkin Elmer) plate readers, with excitation and emission filters at 350 nm and 460 nm, respectively.

Turning to `COC(=O)[C@H](Cc1c[nH]c2ccccc12)NC(=O)C(CC(C)C)CP(=O)(O)[C@@H](N)CCc1ccccc1` (stereo in doubt) [compound 17, ((R)-2-(((S)-3-(1H-indol-3-yl)-1-methoxy-1-oxopropan-2-yl)carbamoyl)-4-methylpentyl)((R)-1-amino-3-phenylpropyl)phosphinic acid], in series [1] (read-out: Recovery A:B), the recovery at 2 h, 10 μM came out at 2%. Besides, in series [1] (read-out: Recovery B:A), the recovery at 2 h, 10 μM was found to be 84%. Also, in series [1], the Papp B→A at 2 h, 10 μM was less than 10 nm/s and the Papp A→B at 2 h, 10 μM was less than 10 nm/s. In addition, the “stability observation in Caco-2 assay A:B” value in series [2] was “Ester hydrolysis observed”.

On to `CC(C)C[C@@H](CP(=O)(O)[C@@H](N)CCc1ccccc1)C(=O)N[C@@H](Cc1c[nH]c2ccccc12)C(N)=O` [DG013B 2, reference compound], for which the recovery at 2 h, 10 μM in series [1] (read-out: Recovery A:B) was found to be 83%. Moreover, the recovery at 2 h, 10 μM in series [1] (read-out: Recovery B:A) stood at 90%. Further, in series [1], the Papp B→A at 2 h, 10 μM was less than 10 nm/s and the Papp A→B at 2 h, 10 μM was less than 10 nm/s.

Take `CC(C)CC(CP(=O)(O)[C@@H](N)CCc1ccccc1)C(=O)N[C@@H](Cc1c[nH]c2ccccc12)C(=O)O` (stereo in doubt) [compound 18, ((2R)-2-((((R)-1-amino-3-phenylpropyl)(hydroxy)phosphoryl)methyl)-4-methylpentanoyl)-L-tryptophan]: the recovery at 2 h, 10 μM in series [1] (read-out: Recovery A:B) was found to be 83%. Further, in series [1] (read-out: Recovery B:A), the recovery at 2 h, 10 μM worked out at 96%. Also, in series [1], the Papp B→A at 2 h, 10 μM was less than 10 nm/s and the Papp A→B at 2 h, 10 μM is less than 10 nm/s.

In the case of `CC(C)C[C@H](CP(=O)(O)[C@@H](N)CCc1ccccc1)C(=O)N[C@@H](Cc1c[nH]c2ccccc12)C(N)=O` [DG013A 1, ((S)-2-(((S)-1-amino-3-(1H-indol-3-yl)-1-oxopropan-2-yl)carbamoyl)-4-methylpentyl)((R)-1-amino-3-phenylpropyl)phosphinic acid, reference compound], the recovery at 2 h, 10 μM in series [1] (read-out: Recovery A:B) stood at 97%. The recovery at 2 h, 10 μM in series [1] (read-out: Recovery B:A) amounted to 100%. Moreover, in series [1], the Papp B→A at 2 h, 10 μM was less than 10 nm/s and the Papp A→B at 2 h, 10 μM is less than 10 nm/s.

On to `CC(C)C[C@H](CP(=O)(O)[C@H](CCc1ccccc1)NC(=O)OCc1ccccc1)C(=O)N[C@@H](Cc1c[nH]c2ccccc12)C(N)=O` [compound 3, (2S)-2-((((1S)-2-amino-1-(1H-indol-3-ylmethyl)-2-oxo-ethyl)carbamoyl)-4-methyl-pentyl)-((1R)-1-(benzyloxycarbonylamino)-3-phenyl-propyl)phosphinic acid], for which the recovery at 2 h, 10 μM in series [1] (read-out: Recovery A:B) is 79%. For the same molecule, the recovery at 2 h, 10 μM in series [1] (read-out: Recovery B:A) is 84%. For the same molecule, the efflux ratio at 2 h, 10 μM in series [1] (Caco-2, pH 7.4, PappB:A/PappA:B, read-out: CACO2 ER (efflux ratio)) is greater than 12. In series [1], the Papp B→A at 2 h, 10 μM was determined as 43 nm/s and the Papp A→B at 2 h, 10 μM is less than 10 nm/s. The “ERAP2 pIC50 ± SEM” value at human ERAP2 is less than 3.66. Further, the negative logarithm of the IC50 (pIC50) at human ERAP2 (read-out: ERAP2 IC50 (geometric mean)) was less than 3.66.

By Papp B→A is commonly meant the apparent permeability from the basolateral to the apical side of a cell layer. One may read the Papp A→B as how fast a substance crosses the layer from the apical side. Usually pIC50 stands for the negative decadic logarithm of the IC50, by convention in mol/L.
